Measured values taken from patent US9216165B2, “Combination of a statin and a taxane for the treatment of gastric cancer” (INSERM (Institut National de la Sante et de la Recherche …, priority 2011, dated 2015).

What was measured:
[1] = test system: HGT-1 human gastric cancer cells; experiment: Apoptosis by Hoechst 33342 staining in HGT-1 cells; type: cell-based; settings: for apoptosis: HGT-1
Procedure: HGT-1 human gastric cancer cells were grown at 37° C. under a humidified atmosphere of 5% CO2 in DMEM (Dulbecco's modified Eagle's medium) (Lonza, Saint Beauzire, France), containing 4.5 g/L glucose and supplemented with 5% fetal bovine serum without antibiotics (Gibco-Invitrogen, Cergy Pontoise, France).
(§1) Apoptosis was determined by Hoechst 33342 (10 μg/ml in PBS) staining of the cells for 15 min at 37° C. and fluorescence microscopy analysis of 300 cells per condition, from replicate cultures.

[2] = test system: docetaxel-resistant HGT-1 cells (D5)
Procedure: Selection of the docetaxel-resistant cell populations was performed with mass cultures grown in complete medium supplemented with 5 nM docetaxel. […] Cells were constantly grown in presence of 5 nM docetaxel, excepted for the cell passage that preceded the experiments that involved drug treatments. […]

HGT-1 cells [3] = experiment: mRNA levels by quantitative real-time RT-PCR in HGT-1 cells; type: cell-based, human; settings: 48 h
Procedure: Total RNA was isolated using Trizol (Invitrogen, Cergy-Pontoise, france) and the RNA samples were used for the first-strand cDNA synthesis with the High Capacity cDNA Reverse Transcription kit and random hexamer primers (Applied biosystems). Quantitative real-time RT-PCR was performed using the Power SYBR Green Kit (Applied biosystems) according to the manufacturer's instructions. mRNA levels were analyzed in duplicate, normalized against GAPDH or phospho-protein P0 as an internal control gene. The results are expressed as the relative gene expression using the ΔΔCt method (Livak and Schmittgen 2001). The primer sequences and reaction conditions will be provided upon request.

HGT-1 cells [4] = experiment: Protein levels by western blotting in HGT-1 cells; type: cell-based, human
Procedure: (§2) The cells were harvested, washed in PBS and lysed in ripa buffer (50 mM Tris HCl pH7.4, 150 mM NaCl, 0.5% Sodium deoxycholate, 0.1% SDS, 1% NP40, 1 mM EDTA, 1 mM PMSF) containing protease inhibitor cocktail (Roche, Meylan, France) and phosphatase inhibitor (Active motif) for 10 min at 4° C. Sixty micrograms of proteins were boiled in Laemmli sample buffer (Bio-Rad) for 5 min, separated by SDS-PAGE using 12% or 15% polyacrylamide gels and blotted onto polyvinyl difluoride membranes (GE Healthcare). Non specific binding sites were blocked for 1 h at room temperature by 5% (wt/v) fat-free milk before overnight incubation at 4° C. with specific rabbit (or mouse for cyclin B1) anti-human antibodies: aurora kinase A and B, procaspase-3, PARP, Bcl-2, Bax and survivin (Cell Signaling Technology-Ozyme, Saint Quentin en Yvelines, France), p27, p21, Mcl-1, cyclin B1 (Santa Cruz biotechnology, Tebu-bio, le Perray en Yvelines, France), cyclin D1 (NeoMarkers, Thermo Fisher Scientific, Illkirch, France) or HSC70 (Abcam, Paris, France) as a loading control. Anti-phospho-ERK1/2 was a mouse monoclonal antibody against a synthetic phosphopeptide (residues around threonine 202 and […] of human p44 MAPK, Cell Signaling Technology, Ozyme, France). Polyclonal antibodies against ERK1 (rabbit, sc-94) or ERK2 (rabbit, sc-154) and phospho-MEK1/2 were from Santa Cruz Biotechnology (Tebu-bio). Rabbit anti-phospho-JNK (Cell Signaling, Saint-Quentin en Yvelines, France) and rabbit polyclonal antibody anti-P38 (Santa Cruz Biotechnology, Tebu-bio). Primary antibodies were detected with a horseradish peroxidase-conjugated IgGs (GE Healthcare, Orsay, France).

[5] = test system: lovastatin-resistant HGT-1-derived cells; experiment: Apoptosis in lovastatin-resistant HGT-1-derived cells; type: cell-based, human; settings: data not shown
Procedure: as §1

D5 cells [6] = experiment: Protein levels by western blotting in D5 cells; type: cell-based, human; settings: 2.5 μM lovastatin, 72 h
Procedure: as §2, with “Polyclonal antibodies against ERK1 (rabbit, sc-94) or ERK2 (rabbit, sc-154) and phospho-MEK1/2 were from Santa Cruz Biotechnology (Tebu-bio). Rabbit anti-phospho-JNK (Cell Signaling, Saint-Quentin en Yvelines, France) and rabbit polyclonal antibody anti-P38 (Santa Cruz Biotechnology, Tebu-bio).” left out

D5 cells [7] = experiment: p21 mRNA by RT-PCR in D5 cells; type: cell-based, human; settings: data not shown
Procedure: Selection of the docetaxel-resistant cell populations was performed with mass cultures grown in complete medium supplemented with 5 nM docetaxel. […] Cells were constantly grown in presence of 5 nM docetaxel, excepted for the cell passage that preceded the experiments that involved drug treatments.

CC[C@]1(O)C[C@@H]2CN(CCc3c([nH]c4ccccc34)[C@@](C(=O)OC)(c3cc4c(cc3OC)N(C)[C@H]3[C@@](O)(C(=O)OC)[C@H](OC(C)=O)[C@]5(CC)C=CCN6CC[C@]43[C@@H]65)C2)C1 [vinblastine]
apoptosis ([1]; 1 nM vinblastine, 48 h): about 30%
vinblastine-induced apoptosis in D5 cells ([2]; 1 nM vinblastine, 48 h): resistant

CC(=O)O[C@@]12CO[C@@H]1C[C@H](O)[C@@]1(C)C(=O)[C@H](O)C3=C(C)[C@@H](OC(=O)[C@H](O)[C@@H](NC(=O)OC(C)(C)C)c4ccccc4)C[C@@](O)([C@@H](OC(=O)c4ccccc4)[C@H]21)C3(C)C [docetaxel, Docetaxel]
apoptosis ([1]; 5 nM docetaxel, 48 h): 15%
apoptosis ([1]; 10 nM docetaxel, 48 h): 27%
p21 expression (HGT-1 cells [3]; 5 or 10 nM docetaxel): induced
aurora kinase B and survivin mRNA (HGT-1 cells [3]): weakly induced
phospho-MEK1/2, phospho-ERK1/2 and p38 MAP kinase levels (HGT-1 cells [4]): had no effect
phosphorylated jun kinase (JNK) (HGT-1 cells [4]): had no effect
Bax protein (HGT-1 cells [4]; 48 h): remained unchanged
Caspase-3 and PARP cleavage (HGT-1 cells [4]; 48 h): cleaved
Mcl-1 protein (HGT-1 cells [4]; 48 h): suppressed
cyclin B1, D1, aurora kinase A, B and survivin protein levels (HGT-1 cells [4]; 48 h): decrease in these proteins
survivin protein levels (HGT-1 cells [4]; 48 h): strongly induced
cyclin B1 protein (HGT-1 cells [4]; docetaxel, 48 h): slightly increased
apoptosis compared with HGT-1 parental cells [5]: higher level

Z-VAD-fmk
effect on docetaxel-induced cell death ([1]; HGT-1, with docetaxel): suppress cell death

CC[C@H](C)C(=O)O[C@H]1C[C@@H](C)C=C2C=C[C@H](C)[C@H](CC[C@@H]3C[C@@H](O)CC(=O)O3)[C@H]21 [lovastatin]
apoptosis ([1]; 12.5 μM lovastatin, 48 h): 35%
apoptosis ([1]; 2.5 or 5 μM lovastatin, 48 or 72 h): up to 32%
apoptosis ([2]; 2.5 or 5 μM lovastatin, 48 or 72 h, D5 cells): up to 55%
p27 expression (HGT-1 cells [3]; 12.5 μM lovastatin alone or with 5 or 10 nM docetaxel): slightly reduced
p21 mRNA induction (HGT-1 cells [3]; 12.5 μM lovastatin): up to 4 fold
LDL-R, HMG-CoA reductase, FPPS and FAS mRNA levels (HGT-1 cells [3]): induced
aurora kinase B and survivin mRNA (HGT-1 cells [3]): repressed
cyclin B1, cyclin D1 and aurora kinase A mRNA (HGT-1 cells [3]): reduced expression of all transcripts
phospho-MEK1/2, phospho-ERK1/2 and p38 MAP kinase levels (HGT-1 cells [4]): decreased
phosphorylated jun kinase (JNK) (HGT-1 cells [4]): induced
Bax protein (HGT-1 cells [4]; 48 h): slightly suppressed
Caspase-3 and PARP cleavage (HGT-1 cells [4]; 48 h): cleaved
Mcl-1 protein (HGT-1 cells [4]; 48 h): suppressed
cyclin B1, D1, aurora kinase A, B and survivin protein levels (HGT-1 cells [4]; 48 h): decrease in all proteins
over-expressed survivin and cyclin B1 proteins in D5 cells (D5 cells [6]): fully suppressed
p27 protein in D5 cells (D5 cells [6]): induced
induction of p21 mRNA in D5 cells compared with HGT-1 (D5 cells [7]): stronger
